In ChEMBL document CHEMBL4043199, “Synthesis and optimization of 4,5,6,7-tetrahydrooxazolo[4,5-c]pyridines as potent and orally-active metabotropic glutamate receptor 5 negative allosteric modulators” (Bioorg Med Chem Lett, 2017):
In brackets after ≈: the same amount, converted by molar mass.

Tests used:
[1] = target: Metabotropic glutamate receptor 5 (Homo sapiens, UniProt P41594); test: Negative allosteric modulation of human recombinant mGluR5 expressed in HEK293 cells assessed as inhibition of glutamate-induced calcium mobilization preincubated for 2 mins followed glutamate addition measured by fluorescence assay; type: functional, cell-based
Metabotropic glutamate receptor 5, sequence (P41594 whole entry): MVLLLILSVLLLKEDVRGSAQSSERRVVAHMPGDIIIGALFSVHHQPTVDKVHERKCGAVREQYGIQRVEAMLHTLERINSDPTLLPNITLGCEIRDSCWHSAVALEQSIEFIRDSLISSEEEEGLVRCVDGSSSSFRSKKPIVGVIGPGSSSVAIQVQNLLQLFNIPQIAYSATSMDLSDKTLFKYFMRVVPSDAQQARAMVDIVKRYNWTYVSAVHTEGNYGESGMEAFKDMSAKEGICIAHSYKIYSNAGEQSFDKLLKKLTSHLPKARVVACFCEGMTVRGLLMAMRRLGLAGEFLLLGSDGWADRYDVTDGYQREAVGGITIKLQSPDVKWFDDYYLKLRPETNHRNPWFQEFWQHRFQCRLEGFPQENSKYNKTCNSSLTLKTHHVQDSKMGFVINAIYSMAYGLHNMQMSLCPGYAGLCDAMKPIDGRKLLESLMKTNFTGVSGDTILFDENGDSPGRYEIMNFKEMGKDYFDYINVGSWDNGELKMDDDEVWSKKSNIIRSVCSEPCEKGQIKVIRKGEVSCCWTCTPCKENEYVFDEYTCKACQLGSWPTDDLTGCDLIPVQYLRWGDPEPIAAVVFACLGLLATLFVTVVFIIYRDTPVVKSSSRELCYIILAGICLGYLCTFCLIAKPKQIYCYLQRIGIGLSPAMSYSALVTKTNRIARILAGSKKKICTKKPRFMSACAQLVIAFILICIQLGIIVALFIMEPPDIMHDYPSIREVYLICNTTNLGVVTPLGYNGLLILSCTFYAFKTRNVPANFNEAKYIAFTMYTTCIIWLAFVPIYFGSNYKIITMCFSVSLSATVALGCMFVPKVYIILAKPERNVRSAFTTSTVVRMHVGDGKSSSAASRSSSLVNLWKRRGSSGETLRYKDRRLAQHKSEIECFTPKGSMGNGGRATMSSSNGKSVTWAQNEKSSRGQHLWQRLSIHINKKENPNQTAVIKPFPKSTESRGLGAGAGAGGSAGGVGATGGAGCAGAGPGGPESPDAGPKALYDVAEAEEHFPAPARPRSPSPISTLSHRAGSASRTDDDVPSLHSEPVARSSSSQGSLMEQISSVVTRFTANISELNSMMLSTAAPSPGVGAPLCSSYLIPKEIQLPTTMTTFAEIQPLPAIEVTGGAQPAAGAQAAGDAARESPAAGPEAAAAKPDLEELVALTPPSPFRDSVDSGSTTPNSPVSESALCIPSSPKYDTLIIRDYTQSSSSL

[2] = Metabolic stability in rat hepatic microsomes assessed as parent compound remaining at 1 uM after 30 mins in presence of NADPH by LC-MS/MS analysis relative to control; type: ADME, Microsome; conditions: liver microsomes, read-out: Stability
[3] = Metabolic stability in human hepatic microsomes assessed as parent compound remaining at 1 uM after 30 mins in presence of NADPH by LC-MS/MS analysis relative to control; type: ADME, Microsome; conditions: liver microsomes, read-out: Stability
Rattus norvegicus [4] = test: Toxicity in rat at 100 mg/kg, po qd administered via gavage for 14 days; type: organism-based; conditions: in vivo, 336 h
Rattus norvegicus [5] = test: Ex vivo receptor occupancy at mGluR5 in Sprague-Dawley rat brain po administered daily for 4 days in presence of [3H]-MPEPy by liquid scintillation counting method; type: functional, organism-based
[6] = Half life in rat at 1 mg/kg, iv; type: ADME, organism-based; conditions: in vivo
Salmonella typhimurium = test: Genotoxicity in Salmonella typhimurium by Ames test; type: toxicity; conditions: salmonella enterica subsp. enterica serovar typhimurium
[7] = Oral bioavailability in monkey at 10 mg/kg; type: ADME, organism-based, Macaca mulatta; conditions: rhesus monkey, in vivo
[8] = Half life in monkey at 0.5 mg/kg, iv; type: ADME, organism-based, Macaca mulatta; conditions: rhesus monkey, in vivo
[9] = Cmax in rat at 10 mg/kg, po; type: ADME, organism-based; parameters: dose 10 mg/kg, route oral; conditions: in vivo
[10] = Aqueous solubility of compound at pH 7.4; type: physicochemical; conditions: aqueous medium
Rattus norvegicus [11] = test: Oral bioavailability in rat at 10 mg/kg; type: ADME, organism-based; conditions: in vivo
Cytochrome P450 2A6 = target: T1, Cytochrome P450 2A6 (Homo sapiens, UniProt P11509); test: (§1) Inhibition of CYP2A6 in human liver microsomes using coumarin as substrate after 10 mins by LC-MS/MS analysis; type: ADME
T1 sequence (P11509 whole entry): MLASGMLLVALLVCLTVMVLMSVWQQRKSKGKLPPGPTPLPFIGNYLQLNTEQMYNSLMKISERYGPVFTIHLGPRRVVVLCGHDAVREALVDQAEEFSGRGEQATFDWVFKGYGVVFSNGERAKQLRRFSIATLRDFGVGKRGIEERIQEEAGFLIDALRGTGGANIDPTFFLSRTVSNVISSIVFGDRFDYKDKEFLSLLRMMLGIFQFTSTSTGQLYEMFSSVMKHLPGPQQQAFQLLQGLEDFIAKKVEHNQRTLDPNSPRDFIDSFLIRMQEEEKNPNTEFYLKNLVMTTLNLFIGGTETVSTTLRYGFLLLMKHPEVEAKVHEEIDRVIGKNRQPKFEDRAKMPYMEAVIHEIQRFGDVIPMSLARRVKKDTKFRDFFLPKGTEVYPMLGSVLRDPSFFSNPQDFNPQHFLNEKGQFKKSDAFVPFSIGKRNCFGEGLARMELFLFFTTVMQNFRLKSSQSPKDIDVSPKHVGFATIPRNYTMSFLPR

[12] = AUC in monkey at 10 mg/kg, po; type: ADME, organism-based, Macaca mulatta; conditions: rhesus monkey, in vivo
Cytochrome P450 1A2 = target: T2, Cytochrome P450 1A2 (Homo sapiens, UniProt P05177); test: (§2) Inhibition of CYP1A2 in human liver microsomes using phenacetin as substrate after 10 mins by LC-MS/MS analysis; type: ADME
T2 sequence (P05177 whole entry): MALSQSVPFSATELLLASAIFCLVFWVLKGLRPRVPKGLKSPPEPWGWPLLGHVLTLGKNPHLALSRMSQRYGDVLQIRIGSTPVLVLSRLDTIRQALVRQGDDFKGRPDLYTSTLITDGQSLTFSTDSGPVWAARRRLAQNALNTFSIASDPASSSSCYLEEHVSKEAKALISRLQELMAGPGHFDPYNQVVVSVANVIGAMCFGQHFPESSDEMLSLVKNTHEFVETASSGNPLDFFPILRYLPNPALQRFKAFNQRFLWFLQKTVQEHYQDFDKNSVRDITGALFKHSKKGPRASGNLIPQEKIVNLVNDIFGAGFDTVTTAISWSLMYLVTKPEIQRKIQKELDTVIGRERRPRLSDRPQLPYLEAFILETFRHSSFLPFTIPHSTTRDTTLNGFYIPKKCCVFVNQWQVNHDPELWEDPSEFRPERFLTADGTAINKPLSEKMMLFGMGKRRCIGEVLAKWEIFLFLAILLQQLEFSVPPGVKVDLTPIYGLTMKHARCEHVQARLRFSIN

Cytochrome P450 2C8 = target: T3, Cytochrome P450 2C8 (Homo sapiens, UniProt P10632); test: (§3) Inhibition of CYP2C8 in human liver microsomes using amodiaquine as substrate after 10 mins by LC-MS/MS analysis; type: ADME
T3 sequence (P10632 whole entry): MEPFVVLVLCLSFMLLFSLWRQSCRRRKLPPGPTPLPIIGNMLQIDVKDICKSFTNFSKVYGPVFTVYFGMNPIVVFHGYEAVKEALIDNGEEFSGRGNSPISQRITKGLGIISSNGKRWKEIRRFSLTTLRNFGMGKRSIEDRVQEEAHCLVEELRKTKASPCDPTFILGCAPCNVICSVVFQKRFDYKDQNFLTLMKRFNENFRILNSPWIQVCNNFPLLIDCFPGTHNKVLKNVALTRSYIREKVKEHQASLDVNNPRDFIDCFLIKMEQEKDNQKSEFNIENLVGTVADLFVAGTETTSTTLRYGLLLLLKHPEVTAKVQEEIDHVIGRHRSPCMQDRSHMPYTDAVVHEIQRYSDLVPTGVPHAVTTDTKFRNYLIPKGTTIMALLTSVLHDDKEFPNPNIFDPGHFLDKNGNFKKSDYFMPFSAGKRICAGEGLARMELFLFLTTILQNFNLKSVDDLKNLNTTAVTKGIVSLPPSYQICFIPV

[13] = Clearance in monkey at 0.5 mg/kg, iv after 24 hrs; type: ADME, organism-based, Macaca mulatta; conditions: rhesus monkey, in vivo
[14] = AUC in rat at 10 mg/kg, po; type: ADME, organism-based; conditions: in vivo
[15] = Volume of distribution at steady state in rat at 1 mg/kg, iv after 24 hrs; type: ADME, organism-based; conditions: in vivo, read-out: Vdss
Cytochrome P450 2C9 = Cytochrome P450 2C9 (Homo sapiens, UniProt P11712); test: (§4) Inhibition of CYP2C9 in human liver microsomes using diclofenac as substrate after 10 mins by LC-MS/MS analysis; type: ADME
Cytochrome P450 2C9, sequence (P11712 whole entry): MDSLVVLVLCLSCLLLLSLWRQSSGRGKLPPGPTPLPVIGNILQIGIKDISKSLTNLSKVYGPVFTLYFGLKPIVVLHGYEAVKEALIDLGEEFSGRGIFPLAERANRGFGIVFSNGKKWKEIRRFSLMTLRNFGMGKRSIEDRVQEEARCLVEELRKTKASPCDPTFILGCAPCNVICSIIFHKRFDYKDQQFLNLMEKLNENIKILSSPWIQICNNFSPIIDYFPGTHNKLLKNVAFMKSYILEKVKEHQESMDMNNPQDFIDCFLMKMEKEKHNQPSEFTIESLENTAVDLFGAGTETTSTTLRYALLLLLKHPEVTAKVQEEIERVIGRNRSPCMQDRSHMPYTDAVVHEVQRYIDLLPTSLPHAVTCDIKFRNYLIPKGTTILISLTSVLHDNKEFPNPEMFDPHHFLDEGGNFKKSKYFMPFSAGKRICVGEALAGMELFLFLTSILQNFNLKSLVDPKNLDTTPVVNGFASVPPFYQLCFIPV

[16] = AUC in monkey at 0.5 mg/kg, iv; type: ADME, organism-based, Macaca mulatta; conditions: rhesus monkey, in vivo
[17] = AUC in rat at 1 mg/kg, iv; type: ADME, organism-based; conditions: in vivo
Cytochrome P450 3A4 = Cytochrome P450 3A4 (Homo sapiens, UniProt P08684); test: (§5) Inhibition of CYP3A4 in human liver microsomes using midazolam as substrate after 10 mins by LC-MS/MS analysis; type: ADME
Cytochrome P450 3A4, sequence (P08684 whole entry): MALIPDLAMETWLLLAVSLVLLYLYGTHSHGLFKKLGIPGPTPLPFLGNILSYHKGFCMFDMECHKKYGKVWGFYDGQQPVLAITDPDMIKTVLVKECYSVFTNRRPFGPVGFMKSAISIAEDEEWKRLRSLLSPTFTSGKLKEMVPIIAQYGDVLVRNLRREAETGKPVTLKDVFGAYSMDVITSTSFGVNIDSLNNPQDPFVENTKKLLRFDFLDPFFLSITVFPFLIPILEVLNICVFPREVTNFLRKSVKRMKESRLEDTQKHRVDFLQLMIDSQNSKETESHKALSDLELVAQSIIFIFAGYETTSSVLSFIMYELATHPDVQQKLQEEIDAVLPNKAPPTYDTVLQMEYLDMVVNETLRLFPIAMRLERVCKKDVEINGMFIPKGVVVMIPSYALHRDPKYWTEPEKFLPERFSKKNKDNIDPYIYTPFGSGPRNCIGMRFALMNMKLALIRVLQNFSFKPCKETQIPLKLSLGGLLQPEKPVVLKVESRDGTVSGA

[18] = Volume of distribution at steady state in monkey at 0.5 mg/kg, iv after 24 hrs; type: ADME, organism-based, Macaca mulatta; conditions: rhesus monkey, in vivo, read-out: Vdss
Cytochrome P450 2C19 = Cytochrome P450 2C19 (Homo sapiens, UniProt P33261); test: (§6) Inhibition of CYP2C19 in human liver microsomes using (S)-mephenytoin as substrate after 10 mins by LC-MS/MS analysis; type: ADME
Cytochrome P450 2C19, sequence (P33261 whole entry): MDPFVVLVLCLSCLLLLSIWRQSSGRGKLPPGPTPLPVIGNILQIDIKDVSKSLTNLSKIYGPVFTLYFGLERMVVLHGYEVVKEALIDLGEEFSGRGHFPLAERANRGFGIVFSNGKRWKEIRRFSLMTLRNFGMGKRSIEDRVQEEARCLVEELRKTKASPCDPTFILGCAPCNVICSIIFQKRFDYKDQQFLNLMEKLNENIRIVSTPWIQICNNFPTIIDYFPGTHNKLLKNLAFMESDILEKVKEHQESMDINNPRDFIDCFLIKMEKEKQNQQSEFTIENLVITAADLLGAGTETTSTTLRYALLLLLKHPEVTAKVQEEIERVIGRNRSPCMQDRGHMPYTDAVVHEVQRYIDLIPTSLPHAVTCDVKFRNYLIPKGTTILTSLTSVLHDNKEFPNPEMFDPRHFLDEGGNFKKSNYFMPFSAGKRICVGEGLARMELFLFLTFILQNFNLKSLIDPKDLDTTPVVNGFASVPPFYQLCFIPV

[19] = Permeability of the compound at pH 7.4 by PAMPA; type: physicochemical; conditions: read-out: permeability
[20] = […] of CYP450 in human liver microsomes as substrate after 10 mins by LC-MS/MS analysis; type: ADME
[21] = Clearance in rat at 1 mg/kg, iv after 24 hrs; type: ADME, organism-based; conditions: in vivo
Cytochrome P450 2D6 = Cytochrome P450 2D6 (Homo sapiens, UniProt P10635); test: (§7) Inhibition of CYP2D6 in human liver microsomes using bufuralol as substrate after 10 mins by LC-MS/MS analysis; type: ADME
Cytochrome P450 2D6, sequence (P10635 whole entry): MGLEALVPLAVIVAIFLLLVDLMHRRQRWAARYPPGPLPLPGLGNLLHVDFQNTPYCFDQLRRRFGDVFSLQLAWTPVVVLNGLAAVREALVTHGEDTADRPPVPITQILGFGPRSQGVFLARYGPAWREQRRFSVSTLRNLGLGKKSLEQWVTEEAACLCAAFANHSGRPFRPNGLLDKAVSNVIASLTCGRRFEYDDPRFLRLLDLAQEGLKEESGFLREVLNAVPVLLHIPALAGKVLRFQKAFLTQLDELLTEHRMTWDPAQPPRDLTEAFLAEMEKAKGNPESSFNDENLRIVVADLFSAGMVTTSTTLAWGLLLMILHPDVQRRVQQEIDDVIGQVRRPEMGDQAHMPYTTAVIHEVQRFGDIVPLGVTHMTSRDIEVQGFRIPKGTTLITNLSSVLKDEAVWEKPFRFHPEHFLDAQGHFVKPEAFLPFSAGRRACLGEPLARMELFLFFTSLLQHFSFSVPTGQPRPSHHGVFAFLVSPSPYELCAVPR

[22] = Cmax in monkey at 10 mg/kg, po; type: ADME, organism-based, Macaca mulatta; parameters: dose 10 mg/kg, route oral; conditions: rhesus monkey, in vivo
P-gp = test: Substrate activity at P-gp (unknown origin) assessed as efflux ratio; type: ADME; conditions: human, not told
CYP2A6 = target: T4, CYP2A6 (Homo sapiens, UniProt P11509); test: as §1; type: ADME; conditions: human, liver microsomes, probe coumarin
T4 sequence (P11509 whole entry): T1 sequence (P11509 whole entry)

CYP1A2 = target: T5, CYP1A2 (Homo sapiens, UniProt P05177); test: as §2; type: ADME; conditions: human, liver microsomes, probe phenacetin
T5 sequence (P05177 whole entry): T2 sequence (P05177 whole entry)

CYP2C8 = target: T6, CYP2C8 (Homo sapiens, UniProt P10632); test: as §3; type: ADME; conditions: human, liver microsomes, probe amodiaquine
T6 sequence (P10632 whole entry): T3 sequence (P10632 whole entry)

CYP2C9 = CYP2C9 (Homo sapiens, UniProt P11712); test: as §4; type: ADME; conditions: human, liver microsomes, probe diclofenac
CYP2C9, sequence (P11712 whole entry): as the sequence (P11712 whole entry) above

CYP3A4 = CYP3A4 (Homo sapiens, UniProt P08684); test: as §5; type: ADME; conditions: human, liver microsomes, probe midazolam
CYP3A4, sequence (P08684 whole entry): as the sequence (P08684 whole entry) above

CYP2C19 = CYP2C19 (Homo sapiens, UniProt P33261); test: as §6; type: ADME; conditions: human, liver microsomes, probe (S)-mephenytoin
CYP2C19, sequence (P33261 whole entry): as the sequence (P33261 whole entry) above

CYP2D6 = CYP2D6 (Homo sapiens, UniProt P10635); test: as §7; type: ADME; conditions: human, liver microsomes, probe bufuralol
CYP2D6, sequence (P10635 whole entry): as the sequence (P10635 whole entry) above

COc1cccc(C(=O)N2CCc3oc(-c4ccc(F)cn4)nc3C2)c1
IC50 [1]: 157 nM | remaining at 0.5 h, 1 µM [2]: > 91% | remaining at 0.5 h, 1 µM [3]: > 91%

O=C(c1cccc(Cl)c1)N1CCc2oc(-c3ccc(F)cn3)nc2C1
IC50 [1]: 50 nM | remaining at 0.5 h, 1 µM [2]: > 91% | remaining at 0.5 h, 1 µM [3]: > 91%

O=C(c1ccc(F)cc1)N1CCc2oc(-c3ccc(F)cn3)nc2C1
IC50 [1]: 90 nM | remaining at 0.5 h, 1 µM [2]: > 91% | remaining at 0.5 h, 1 µM [3]: > 91%

O=C(c1cccc(F)c1)N1CCc2oc(-c3ccc(F)cn3)nc2C1
Activity (Rattus norvegicus [4]): Non-Toxic | Activity (Rattus norvegicus [5]): Dose-dependent effect | IC50 [1]: 63 nM | half-life [6]: 2 h | Activity (Salmonella typhimurium): Non-Toxic | bioavailability [7]: 114% | half-life [8]: 9.5 h | Cmax [9]: 2070 ng/mL | solubility [10]: 23 µg/mL (≈ 67.4 µM) | F (Rattus norvegicus [11]): 168% | remaining at 0.5 h, 1 µM [2]: 91 to 97% | IC50 (Cytochrome P450 2A6): > 50000 nM | AUC [12]: 69200 ng·h/mL | IC50 (Cytochrome P450 1A2): > 50000 nM | IC50 (Cytochrome P450 2C8): > 50000 nM | clearance [13]: 2.8 mL/min/kg | AUC [14]: 26100 ng·h/mL | Vd [15]: 1.6 L/kg | IC50 (Cytochrome P450 2C9): > 50000 nM | AUC [16]: 3050 ng·h/mL | AUC [17]: 1550 ng·h/mL | IC50 (Cytochrome P450 3A4): > 50000 nM | Vd [18]: 2.2 L/kg | IC50 (Cytochrome P450 2C19): > 50000 nM | Papp [19]: 31.7 ×10⁻⁶ cm/s | remaining at 0.5 h, 1 µM [3]: 91 to 97% | Activity [20]: Not Active | clearance [21]: 10.8 mL/min/kg | IC50 (Cytochrome P450 2D6): > 50000 nM | Cmax [22]: 4060 ng/mL

O=C(c1cc(F)cc(Cl)c1)N1CCn2nc(-c3ccc(F)cn3)cc2C1
solubility [10]: 4 µg/mL (≈ 10.7 µM) | efflux ratio (P-gp): 1.2 | remaining at 0.5 h, 1 µM [2]: > 97% | IC50 at 10 min (CYP2A6): > 40000 nM | IC50 at 10 min (CYP1A2): > 40000 nM | IC50 at 10 min (CYP2C8): > 40000 nM | IC50 at 10 min (CYP2C9): > 40000 nM | IC50 at 10 min (CYP3A4): > 40000 nM | IC50 at 10 min (CYP2C19): > 40000 nM | remaining at 0.5 h, 1 µM [3]: > 97% | Activity [20]: Not Active | IC50 at 10 min (CYP2D6): > 40000 nM

N#Cc1ccc(-c2nc3c(o2)CCN(C(=O)c2ccccc2)C3)nc1
IC50 [1]: 237 nM

O=C(c1ccccc1)N1CCc2oc(-c3ccc(Br)cn3)nc2C1
IC50 [1]: 174 nM

O=C(c1ccccc1)N1CCc2oc(-c3ccc(Cl)cn3)nc2C1
IC50 [1]: 32 nM

Cc1ccc(-c2nc3c(o2)CCN(C(=O)c2ccccc2)C3)nc1
IC50 [1]: 177 nM

N#Cc1cc(F)cc(C(=O)N2CCc3oc(-c4ccc(F)cn4)nc3C2)c1
IC50 [1]: 403 nM | remaining at 0.5 h, 1 µM [2]: > 97% | remaining at 0.5 h, 1 µM [3]: > 97%

O=C(c1ccccc1F)N1CCc2oc(-c3ccc(F)cn3)nc2C1
IC50 [1]: 58 nM | remaining at 0.5 h, 1 µM [2]: > 91% | remaining at 0.5 h, 1 µM [3]: > 91%

Cc1cc(Cl)cc(C(=O)N2CCc3oc(-c4ccc(F)cn4)nc3C2)c1
IC50 [1]: 46 nM | remaining at 0.5 h, 1 µM [2]: > 91% | remaining at 0.5 h, 1 µM [3]: > 91%
